Among the data in ChEMBL document CHEMBL1156824, “Physicochemical space for optimum oral bioavailability: contribution of human intestinal absorption and first-pass elimination” (J Med Chem, 2010) are CL, CL renal and F_fraction values, retold here.

The species named for series [1] is Homo sapiens. Description: Hepatic clearance in human. Particulars: in vivo.
Another series in a line: clinical. Particulars: human, in vivo.
The subject of series [2] is Homo sapiens. Description: Oral bioavailability in human. Particulars: in vivo.

Consider `CCCc1nc2c(C)cc(-c3nc4ccccc4n3C)cc2n1Cc1ccc(-c2ccccc2C(=O)O)cc1`, for which the CL in the series listed under Homo sapiens [1] was 8.3 mL/min/kg. In “clinical”, the CL renal was 0.1 mL/min/kg. The same compound showed a F_fraction in the series with Homo sapiens [2] of 0.43. In the series filed under Homo sapiens [1], `CNS(=O)(=O)Cc1ccc2[nH]cc(CCN(C)C)c2c1` had a CL of 15.3 mL/min/kg. In the series with Homo sapiens [2], the F_fraction is 0.14. Compound `CCCC(=O)Nc1ccc(OCC(O)CNC(C)C)c(C(C)=O)c1` (configuration not stated) [ACEBUTOLOL] displayed a F_fraction in the series with Homo sapiens [2] of 0.5. For `CN(C)Cc1nnc2n1-c1ccc(Cl)cc1C(c1ccccc1)=NC2` [ADINAZOLAM], the CL in the series listed under Homo sapiens [1] was found to be 3.6 mL/min/kg. For the same compound, the F_fraction with Homo sapiens [2] was 0.39.

Compound `CC[C@H]1OC(=O)[C@H](C)[C@@H](O[C@H]2C[C@@](C)(OC)[C@@H](O)[C@H](C)O2)[C@H](C)[C@@H](O[C@@H]2O[C@H](C)C[C@H](N(C)C)[C@H]2O)[C@](C)(O)C[C@@H](C)CN(C)[C@H](C)[C@@H](O)[C@]1(C)O` [AZITHROMYCIN] displayed a CL in the series filed under Homo sapiens [1] of 9.6 mL/min/kg. In the series “clinical”, this compound came in with a CL renal of 0.5 mL/min/kg. Moreover, in the series with Homo sapiens [2], the F_fraction is recorded as 0.34. For `Nc1c(CC(=O)O)cccc1C(=O)c1ccc(Br)cc1` [BROMFENAC] the same measures were 1.3 mL/min/kg, 0.0022 mL/min/kg and 0.67.

`C[C@H](CS)C(=O)N1CCC[C@H]1C(=O)O` [CAPTOPRIL] yielded a F_fraction in the series with Homo sapiens [2] of 0.62.

Regarding `N[C@@H](C(=O)N[C@@H]1C(=O)N2C(C(=O)O)=C(CSc3c[nH]nn3)CS[C@H]12)c1ccc(O)cc1` [CEFATRIZINE], the CL in the series filed under Homo sapiens [1] is 0.7 mL/min/kg. In addition, the F_fraction with Homo sapiens [2] was found to be 0.75.

Consider `C=CC1=C(C(=O)O)N2C(=O)[C@@H](NC(=O)/C(=N\OCC(=O)O)c3csc(N)n3)[C@H]2SC1` [CEFIXIME], for which, in the series filed under Homo sapiens [1], the CL is 0.6 mL/min/kg. In “clinical”, this compound gave a CL renal of 0.4 mL/min/kg. Further, the F_fraction with Homo sapiens [2] stood at 0.47. As to `COc1cccc2c1C(=O)c1c(O)c3c(c(O)c1C2=O)C[C@@](O)(C(=O)CO)C[C@@H]3O[C@H]1C[C@H](N)[C@H](O)[C@H](C)O1` [DOXORUBICIN], the CL in the series filed under Homo sapiens [1] was 13.2 mL/min/kg. Also, the F_fraction with Homo sapiens [2] amounted to 0.05. As to `CCOC(=O)C1=C(C)NC(C)=C(C(=O)OC)C1c1cccc(Cl)c1Cl` (configuration not stated) [FELODIPINE], in the series on Homo sapiens [2], the F_fraction was 0.16. With `Nc1nc(=O)[nH]cc1F` [FLUCYTOSINE], the CL in the series filed under Homo sapiens [1] was 0.02 mL/min/kg. In the series on Homo sapiens [2], this compound returned a F_fraction of 0.84. `NCC1(CC(=O)O)CCCCC1` [GABAPENTIN]: the F_fraction in the series with Homo sapiens [2] is given as 0.6. The same measure, in the same setting: the same measure for `CC(C)Cc1ccc(C(C)C(=O)O)cc1` (configuration not stated) [IBUPROFEN]: 0.95. For `O=C(c1ccccc1)c1ccc2n1CCC2C(=O)O` (configuration not stated) [KETOROLAC], in the series filed under Homo sapiens [1], the CL was 0.2 mL/min/kg. In the series on Homo sapiens [2], this compound had a F_fraction of 1. For the compound `C[C@H]1COc2c(N3CCN(C)CC3)c(F)cc3c(=O)c(C(=O)O)cn1c23.C[C@H]1COc2c(N3CCN(C)CC3)c(F)cc3c(=O)c(C(=O)O)cn1c23.O` [LEVOFLOXACIN], the CL in the series listed under Homo sapiens [1] worked out at 0.5 mL/min/kg. Also, the F_fraction with Homo sapiens [2] came to 0.99. The matching figures for `CCCCc1nc(Cl)c(CO)n1Cc1ccc(-c2ccccc2-c2nn[nH]n2)cc1` [LOSARTAN]: 7.3 mL/min/kg and 0.36.

In the series on Homo sapiens [2], `COC(=O)C1=C(C)NC(C)=C(C(=O)OC)C1c1ccccc1[N+](=O)[O-]` [NIFEDIPINE] gave a F_fraction of 0.5. On to `Nc1nc2c(ncn2CCC(CO)CO)c(=O)[nH]1` [PENCICLOVIR], for which the CL in the series listed under Homo sapiens [1] is 1.7 mL/min/kg. The F_fraction with Homo sapiens [2] amounted to 0.05. In the case of `CCCN(CCC)S(=O)(=O)c1ccc(C(=O)O)cc1` [PROBENECID], the CL in the series filed under Homo sapiens [1] is 0.2 mL/min/kg. The same compound displayed a F_fraction in the series with Homo sapiens [2] of 1. Consider `Cc1nc2n(c(=O)c1CCN1CCC(c3noc4cc(F)ccc34)CC1)CCCC2` [RISPERIDONE], for which the CL renal in the series “clinical” stood at 0.2 mL/min/kg. In addition, the F_fraction in the series with Homo sapiens [2] stood at 0.66.

In the series listed under Homo sapiens [1], `CN(C(=O)c1c(O)c2ccccc2n(C)c1=O)c1ccccc1` [ROQUINIMEX] gave a CL of 0.1 mL/min/kg. The CL renal in the series “clinical” came out at 0.0008 mL/min/kg. In the series listed under Homo sapiens [1], `CC(C)c1nc(N(C)S(C)(=O)=O)nc(-c2ccc(F)cc2)c1/C=C/[C@@H](O)C[C@@H](O)CC(=O)O` [ROSUVASTATIN] showed a CL of 7.7 mL/min/kg. This compound came in with a F_fraction in the series with Homo sapiens [2] of 0.2. As to `CC(C)NCC(O)c1ccc(NS(C)(=O)=O)cc1` (configuration not stated) [SOTALOL], in the series listed under Homo sapiens [1], the CL turned out to be 0.3 mL/min/kg. Moreover, the F_fraction in the series on Homo sapiens [2] turned out to be 0.95.

In the series listed under Homo sapiens [1], `C[C@@H]1CN(c2c(F)c(N)c3c(=O)c(C(=O)O)cn(C4CC4)c3c2F)C[C@H](C)N1` [SPARFLOXACIN] yielded a CL of 2.3 mL/min/kg. In addition, in the series with Homo sapiens [2], the F_fraction amounted to 0.92. In turn, `O=C1C(CC[S+]([O-])c2ccccc2)C(=O)N(c2ccccc2)N1c1ccccc1` (configuration not stated) [SULFINPYRAZONE] yielded a F_fraction in the series with Homo sapiens [2] of 0.93. `Cc1ccc(C(=O)Nc2ccc(S(=O)(=O)O)c3cc(S(=O)(=O)O)cc(S(=O)(=O)O)c23)cc1NC(=O)c1cccc(NC(=O)Nc2cccc(C(=O)Nc3cc(C(=O)Nc4ccc(S(=O)(=O)O)c5cc(S(=O)(=O)O)cc(S(=O)(=O)O)c45)ccc3C)c2)c1` [SURAMIN] displayed a CL in the series filed under Homo sapiens [1] of 0.0011 mL/min/kg. Further, in “clinical”, the CL renal was found to be 0.0046 mL/min/kg. For `CCCCCNC(=N)N/N=C/c1c[nH]c2ccc(OC)cc12` [TEGASEROD] the same measures were 17.6 mL/min/kg and 0.4 mL/min/kg.

For `COc1cc2nc(N3CCN(C(=O)C4CCCO4)CC3)nc(N)c2cc1OC` (configuration not stated) [TERAZOSIN], the CL in the series filed under Homo sapiens [1] is 1 mL/min/kg. Further, the CL renal in the series “clinical” is 0.1 mL/min/kg. The matching figures for `CC(CC(c1ccccc1)c1ccccc1)NC(C)(C)C` (configuration not stated) [TERODILINE]: 1 mL/min/kg and 0.1 mL/min/kg.

For the compound `CCO[C@@H](Cc1ccc(OCCc2ccc(OS(C)(=O)=O)cc2)cc1)C(=O)O` [TESAGLITAZAR], the CL in the series filed under Homo sapiens [1] amounted to 0.032 mL/min/kg. The same compound yielded a CL renal in the series “clinical” of 0.007 mL/min/kg. The matching figures for `Cn1c(=O)c2[nH]cnc2n(C)c1=O.O` [THEOPHYLLINE]: 0.8 mL/min/kg and 0.1 mL/min/kg. `Cc1ccsc1C(=CCCN1CCC[C@@H](C(=O)O)C1)c1sccc1C` [TIAGABINE] showed a CL in the series listed under Homo sapiens [1] of 1.6 mL/min/kg. Moreover, the CL renal in the series “clinical” turned out to be 0.032 mL/min/kg.

As to `CCS(=O)(=O)CCn1c([N+](=O)[O-])cnc1C` [TINIDAZOLE], in the series listed under Homo sapiens [1], the CL was found to be 0.5 mL/min/kg. Further, the CL renal in “clinical” is 0.1 mL/min/kg. The matching figures for `Cc1cccc(Nc2ccncc2S(=O)(=O)NC(=O)NC(C)C)c1` [TORSEMIDE]: 0.4 mL/min/kg and 0.1 mL/min/kg.

Regarding `COc1cccc(C2(O)CCCCC2CN(C)C)c1` (configuration not stated) [TRAMADOL], the CL in the series listed under Homo sapiens [1] is 5.5 mL/min/kg. The same compound registered a CL renal in the series “clinical” of 1 mL/min/kg. For `O=c1n(CCCN2CCN(c3cccc(Cl)c3)CC2)nc2ccccn12` [TRAZODONE] the same measures were 1.4 mL/min/kg and 0.0018 mL/min/kg. The matching figures for `CC(=O)CC(c1ccccc1)c1c(O)c2ccccc2oc1=O` (configuration not stated) [WARFARIN]: 0.1 mL/min/kg and 0.0011 mL/min/kg.

In turn, `O=C(NCCNCC(O)COc1ccc(O)cc1)N1CCOCC1` (configuration not stated) [XAMOTEROL] had a CL in the series listed under Homo sapiens [1] of 1.1 mL/min/kg. In the series with Homo sapiens [2], this compound registered a F_fraction of 0.05. For `CC(=O)N[C@H]1[C@H]([C@H](O)[C@H](O)CO)OC(C(=O)O)=C[C@@H]1N=C(N)N` [ZANAMIVIR] the same measures were 0.2 mL/min/kg and 0.03.
